# Literature values in patent US10034846B2, “Famciclovir and celecoxib combination therapy for functional somatic syndromes” (INNOVATIVE MED CONCEPTS, LLC, priority 2012, dated 2018).
# System: fibromyalgia patients
# Conditions: Kendall et al., J. Rheumatology (2004) 31, 783-784
compound,measurement,value
CC(C)[C@H](N)C(=O)OCCOCn1cnc2c(=O)[nH]c(N)nc21 [valacyclovir],Treatment of fibromyalgia patients,not successful
